In US5789434A, “Derivatives of substituted 4-biarylbutyric acid as matrix metalloprotease inhibitors” (priority 1995, dated 1998) one finds IC50 and inhibition data, which are given here for 33 molecules.

One may read the IC50 as the point on the concentration scale where inhibition reaches its midpoint. Usually inhibition stands for the relative decrease from the control value, in per cent.

The target of one assay is T1, MMP-3 (Homo sapiens, UniProt P08254).
T1 construct: Truncated Prostromelysin-257 was expressed in a soluble form in E.coli; made in house; host or cells: E. coli
The assay is described as follows: Primary Thiopeptilide MMP-3 Inhibition Assay. As to conditions: for IC50: pH 6.5, 13 nM stromelysin, x (n) = average of n determinations, read-out: MMP-3 Thiopep. IC50; for inhibition at 5 µM: read-out: MMP-3 Thiopep. % inhibition. The assay is classed as biochemical.

In another assay the target is T2, MMP-9 (Homo sapiens, UniProt P14780).
T2 construct: from tissue; host or cells: human polymorphonuclear leukocytes (PMN) from whole blood (New York Blood Center), PMA-stimulated supernatant
Description: Thiopeptilide MMP-9 Inhibition Assay. It is filed as biochemical. The settings on record: for IC50: pH 6.5, x (n) = average of n determinations, read-out: MMP-9: Thiopep. IC50; for inhibition at 5 µM: read-out: MMP-9: Thiopep. % inhibition.

Structures can show the parent of a compound that is named as a salt.

T1 sequence (P08254 100-274 limits assumed): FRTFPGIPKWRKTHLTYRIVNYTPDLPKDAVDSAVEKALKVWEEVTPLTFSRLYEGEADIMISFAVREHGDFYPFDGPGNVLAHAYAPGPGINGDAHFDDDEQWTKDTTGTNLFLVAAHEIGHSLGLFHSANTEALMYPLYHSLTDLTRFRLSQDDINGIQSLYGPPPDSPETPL
T2 sequence (P14780 107-707 limits assumed): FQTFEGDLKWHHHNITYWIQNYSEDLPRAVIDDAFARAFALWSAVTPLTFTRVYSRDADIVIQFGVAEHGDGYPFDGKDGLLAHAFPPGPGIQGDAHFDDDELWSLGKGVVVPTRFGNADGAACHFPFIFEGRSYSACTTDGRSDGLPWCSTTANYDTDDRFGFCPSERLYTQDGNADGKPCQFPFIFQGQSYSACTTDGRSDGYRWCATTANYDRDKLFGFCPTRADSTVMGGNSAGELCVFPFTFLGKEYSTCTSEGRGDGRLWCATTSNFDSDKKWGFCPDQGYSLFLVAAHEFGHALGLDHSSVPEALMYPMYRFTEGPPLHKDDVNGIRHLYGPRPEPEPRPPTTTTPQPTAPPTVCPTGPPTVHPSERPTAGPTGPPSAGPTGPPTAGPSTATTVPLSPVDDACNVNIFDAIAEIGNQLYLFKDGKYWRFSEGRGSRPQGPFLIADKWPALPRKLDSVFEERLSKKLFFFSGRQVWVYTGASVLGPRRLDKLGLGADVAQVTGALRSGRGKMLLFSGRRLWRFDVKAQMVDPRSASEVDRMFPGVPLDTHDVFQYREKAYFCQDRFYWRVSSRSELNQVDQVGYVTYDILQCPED
Description for MMP-3: Enzyme: recombinant stromelysin expressed in E.coli and purified as described above. […] The protocols for the assay of compounds as stromelysin inhibitors was the same as that used for MMP-9 except that the assay buffer was 50 mM MES, pH 6.5 containing 150 mM NaCl, 10 mM CaCl2, 0.005% Brij, and 1% DMSO.

Consider `O=C(CC(CSc1ccc([N+](=O)[O-])cc1)C(=O)O)c1ccc(-c2ccc(Cl)cc2)cc1` (stereo not drawn) [Example 224, [1,1'-Biphenyl]-4-butanoic acid, 4'-chloro-α[[(4-nitrophenyl)thio]methyl]-γ-oxo-], for which the IC50 at MMP-3 turned out to be 680 nM; on MMP-9 it was 550 nM.
`Cc1ccc(CCCC(CC(=O)c2ccc(-c3ccc(Cl)cc3)cc2)C(=O)O)cc1` (stereo not drawn) [Example 184, [1,1'-Biphenyl]-4-butanoic acid, 4'-chloro-α[3-(4-methylphenyl)propyl]-γ-oxo-]: on MMP-3, the IC50 is 280 nM. The inhibition at 5 µM at MMP-9 is 41%.
Consider `CC(C)(CCC(=O)c1ccc(-c2ccc(Cl)cc2)cc1)C(=O)O` [Example 337, [1,1'-Biphenyl]-4-pentanoic acid, 4'-chloro-α,α-dimethyl-δ-oxo-], for which the inhibition at 5 µM at MMP-3 is 20%; at MMP-9, 2%.
With `O=C(CC(CCCc1ccc(Cl)cc1)C(=O)O)c1ccc(-c2ccc(Cl)cc2)cc1` (stereo not drawn) [Example 185, [1,1'-Biphenyl]-4-butanoic acid, 4'-chloro-α[3-(4-chlorophenyl)propyl]-γ-oxo-], the IC50 at MMP-3 was 220 nM. For the same molecule, at MMP-9, the inhibition at 5 µM was determined as 31%.
Consider `CSCCCC(CC(=O)c1ccc(-c2ccc(Cl)cc2)cc1)C(=O)O` (stereo not drawn) [Example 266, [1,1'-Biphenyl]-4-butanoic acid, 4'-chloro-α-[3-(methylthio)propyl]-γ-oxo-], for which the IC50 on MMP-3 came out at 250 nM; at MMP-9, 650 nM.
In the case of `CCc1ccc(-c2ccc(C(=O)CC(CC(C)C)C(=O)O)nc2)cc1` (stereo not drawn) [Example 61, 2-Pyridinebutanoic acid, 5-(4-ethylphenyl)-α-(2-methylpropyl)-γ-oxo-], the inhibition at 5 µM at MMP-3 was found to be 35%; at MMP-9, 22%.
As for `CCc1ccc(-c2ccc(C(=O)CC(CC(C)C)C(=O)O)cc2)cc1` (stereo not drawn) [Example 16, [1,1'-Biphenyl]-4-butanoic acid, 4'-ethyl-α-(2-methylpropyl)-γ-oxo-], the IC50 on MMP-3 came to 620 nM; on MMP-9, 3100 nM.
Regarding `CCCC(CC(=O)c1ccc(-c2ccc(Cl)cc2)cc1)C(=O)O` (stereo not drawn) [Example 118, [1,1'-Biphenyl]-4-butanoic acid, 4'-chloro-γ-oxo-α-propyl-], the figures for the IC50 at MMP-3 and on MMP-9 were 440 nM and 2200 nM, respectively.
Consider `CNC(=O)[C@@H]1CCCN1C(=O)C(CC(=O)c1ccc(-c2ccc(Cl)cc2)cc1)CC(C)C` (stereo partly drawn) [Example 346, 2-Pyrrolidinecarboxamide, 1-[2-[2-(4'-chloro[1,1'-biphenyl]-4-yl)-2-oxoethyl]-4-metyl-1-oxopentyl]-N-methyl-, (2S)-], for which the IC50 at MMP-3 was 6000 nM. For the same molecule, the inhibition at 5 µM on MMP-9 was found to be 34%.
As for `CCOc1ccc(-c2ccc(C(=O)CC(CCCc3ccccc3)C(=O)O)cc2)cc1` (stereo not drawn) [Example 75, [1,1'-Biphenyl]-4-butanoic acid, 4'-ethoxy-γ-oxo-α-(3-phenylpropyl)-], the IC50 at MMP-3 turned out to be 78 nM; on MMP-9, 82 nM.
`CC(C)(C)C(=O)SCC(CC(=O)c1ccc(-c2ccc(Cl)cc2)cc1)C(=O)O` (single isomer, unassigned) [Example 195, [1,1'-Biphenyl]-4-butanoic acid, 4'-chloro-α-[[(2,2-dimethyl-1-oxopropyl)thio]methyl]-γ-oxo-]: the figures for the inhibition at 5 µM at MMP-3 and on MMP-9 were 31% and 20%, respectively.
Regarding `O=C(C[C@H](CCCc1ccccc1)C(=O)O)c1ccc(-c2ccc(Br)cc2)cc1` [Example 178, [1,1'-Biphenyl]-4-butanoic acid, 4'-bromo-γ-oxo-α-(3-phenylpropyl)-, (S)-], the figures for the IC50 on MMP-3 and on MMP-9 were 150 nM and 240 nM, respectively.
The matching figures for `COc1ccccc1SCC(CC(=O)c1ccc(-c2ccc(Cl)cc2)cc1)C(=O)O` (stereo not drawn) [Example 229, [1,1'-Biphenyl]-4-butanoic acid, 4'-chloro-α-[[(2-methoxyphenyl)thio]methyl]-γ-oxo-]: 300 nM and 900 nM.
`CC(C)(CC(=O)O)CC(=O)c1ccc(-c2ccc(Cl)cc2)cc1` [Example 334, [1,1'-Biphenyl]-4-pentanoic acid, 4'-chloro-β,β-dimethyl-δ-oxo-]: at MMP-3, the inhibition at 5 µM came out at 42%. Also, the IC50 on MMP-9 was 6000 nM.
As to `O=C(O)/C=C/C(=O)c1ccc(Oc2ccc(Cl)cc2)cc1` [Example 30, 2-Butenoic acid, 4-[4-(4-chlorophenoxy)penyl]-4-oxo-, (E)-, reference compound], the inhibition at 5 µM at MMP-3 came to 8%; at MMP-9, 25%.
In the case of `C=Cc1ccc(-c2ccc(C(=O)CC(CCCc3ccccc3)C(=O)O)cc2)cc1` (stereo not drawn) [Example 55, [1,1'-Biphenyl]-4-butanoic acid, 4'-ethenyl-γ-oxo-α-(3-phenylpropyl)-], the figures for the IC50 on MMP-3 and at MMP-9 were 170 nM and 110 nM, respectively.
For `CC(=O)Oc1ccc(-c2ccc(C(=O)CC(CCCc3ccccc3)C(=O)O)cc2)cc1` (stereo not drawn) [Example 67, [1,1'-Biphenyl]-4-butanoic acid, 4'-(acetyloxy)-γ-oxo-α-(3-phenylpropyl)-], the results for the IC50 on MMP-3 and at MMP-9 were 150 nM and 780 nM, respectively.
For `CCCCCc1ccc(-c2ccc(C(=O)CC(CC(C)C)C(=O)O)cc2)cc1` (stereo not drawn) [Example 22, [1,1'-Biphenyl]-4-butanoic acid, α-(2-methylpropyl)-γ-oxo-4'-pentyl-], in that order: 790 nM and 1200 nM.
For `CC(C)(C)c1ccc(-c2ccc(C(=O)CC(CCCc3ccccc3)C(=O)O)cc2)cc1` (stereo not drawn) [Example 48, [1,1'-Biphenyl]-4-butanoic acid, 4'-(1,1-dimethylethyl)-γ-oxo-α-(3-phenylpropyl)-], the inhibition at 5 µM came to 53% on MMP-3 and 15% on MMP-9.
With `O=C(O)CCCC(=O)c1ccc(-c2ccc(Cl)cc2)cc1` [Example 333, [1,1'-Biphenyl]-4-pentanoic acid, 4'-chloro-δ-oxo-, reference compound], the inhibition at 5 µM was 62% at MMP-3 and 25% at MMP-9.
For `CCCCC(CC(=O)c1ccc(-c2ccc(Cl)cc2)cc1)C(=O)O` (stereo not drawn) [Example 120, [1,1'-Biphenyl]-4-butanoic acid, α-butyl-4'-chloro-γ-oxo-], the IC50 on MMP-3 came to 380 nM. The inhibition at 5 µM on MMP-9 worked out at 60%.
Regarding `CC(C)C[C@H](CC(=O)c1ccc(-c2ccc(Cl)cc2)cc1)C(=O)O` [Example 3, [1,1'-Biphenyl]-4-butanoic acid, 4'-chloro-α-(2-methylpropyl)-γ-oxo-, (R)-], the inhibition at 5 µM on MMP-3 came to 13%; at MMP-9, 0%.
As for `CC(C)(C)c1ccc(SCC(CC(=O)c2ccc(-c3ccc(Cl)cc3)cc2)C(=O)O)cc1` (stereo not drawn) [Example 213, [1,1'-Biphenyl]-4-butanoic acid, 4'-chloro-α-[[(4-(1,1-dimethylethyl)phenyl]thio]methyl]-γ-oxo-], on MMP-3, the IC50 came to 2500 nM. At MMP-9, the inhibition at 5 µM is 41%.
For the molecule `C=CCC(CC(=O)c1ccc(-c2ccc(Cl)cc2)cc1)C(=O)O` (stereo not drawn) [Example 119, [1,1'-Biphenyl]-4-butanoic acid, 4'-chloro-γ-oxo-α-2-propenyl-], the IC50 was found to be 760 nM at MMP-3 and 1800 nM on MMP-9.
Consider `O=C(CC(CSc1ccccc1C(=O)O)C(=O)O)c1ccc(-c2ccc(Cl)cc2)cc1` (stereo not drawn) [Example 233], for which the results for the IC50 on MMP-3 and at MMP-9 were 339 nM and 4800 nM, respectively.
As to `O=C(CC(CSc1ccccc1Br)C(=O)O)c1ccc(-c2ccc(Cl)cc2)cc1` (stereo not drawn) [Example 219, [1,1'-Biphenyl]-4-butanoic acid, 4'-chloro-α-[[(2-bromophenyl)thio]methyl]-4'-chloro-γ-oxo-], the figures for the IC50 on MMP-3 and at MMP-9 were 260 nM and 600 nM, respectively.
For the molecule `CCN(CC)CCCC(CC(=O)c1ccc(-c2ccc(Cl)cc2)cc1)C(=O)O` (stereo not drawn) [Example 265, [1,1'-Biphenyl]-4-butanoic acid, 4'-chloro-α-[3-(diethylamino)propyl]-γ-oxo-, trifluoroacetate], the IC50 at MMP-3 is 2900 nM. In addition, the inhibition at 5 µM on MMP-9 is 42%.
Consider `O=C(CC(CSCCCc1ccccc1)C(=O)O)c1ccc(-c2ccc(Cl)cc2)cc1` (stereo not drawn) [Example 207, [1,1'-Biphenyl]-4-butanoic acid, 4'-chloro-γ-oxo-α-[[(3-phenylpropyl)thio]methyl]-], for which the IC50 at MMP-3 is 180 nM; on MMP-9, 290 nM.
For `COc1ccc(CCCC(CC(=O)c2ccc(-c3ccc(Cl)cc3)cc2)C(=O)O)cc1` (stereo not drawn) [Example 186, [1,1'-Biphenyl]-4-butanoic acid, 4'-chloro-α[3-(4-methoxyphenyl)propyl]-γ-oxo-], in that order: 170 nM and 383 nM.
As for `O=C(O)[C@@H]1CCC[C@H]1C(=O)c1ccc(-c2ccc(Cl)cc2)cc1` (relative stereo) [Example 289, Cyclopentanecarboxylic acid, 2-[(4'-chloro[1,1'-biphenyl]-4-yl)carbonyl]-, trans-], the IC50 is 348 nM at MMP-3 and 910 nM at MMP-9.
On to `O=C(CC(CCCc1ccccc1)P(=O)(O)O)c1ccc(-c2ccc(Br)cc2)cc1` (stereo not drawn) [Example 345, Phosphonic acid, [1-[2-(4'-bromo[1,1'-biphenyl]-4-yl)-2-oxoethyl]-4-phenylbutyl]-], for which the IC50 at MMP-3 was found to be 5000 nM. Besides, on MMP-9, the inhibition at 5 µM is 30%.
In the case of `O=C(CC(CSc1ccccc1CO)C(=O)O)c1ccc(-c2ccc(Cl)cc2)cc1` (stereo not drawn) [Example 217, [1,1'-Biphenyl]-4-butanoic acid, 4'-chloro-α-[[[2-(hydroxymethyl)phenyl]thio]methyl]-γ-oxo-], the IC50 on MMP-3 was determined as 83 nM; on MMP-9, 245 nM.
In the case of `O=C(O)c1ccccc1C(=O)c1ccc(-c2ccc(Cl)cc2)cc1` [Example 287, Benzoic acid, 2-[(4'-chloro[1,1'-biphenyl]-4-yl)carbonyl]-], the inhibition at 5 µM on MMP-3 turned out to be 26%; on MMP-9, 3%.
